Measured values: patent US10428104B2, “Substituted nucleoside derivatives useful as anticancer agents” (Pfizer Inc., priority 2015, dated 2019)

Target: PRMT5/MEP50 protein complex (Homo sapiens (Human), UniProt O14744)
Experiment: PRMT5 biochemical assay (3H-SAM methylation of H4(1-21) peptide, filter plate scintillation counting)
Details: PRMT5 enzyme inhibition; 10 nM PRMT5/MEP50 complex, 200 nM H4(1-21) peptide, 1 uM SAM, 25 minute incubation at room temperature
Method: Following dilution, 1 ul was added to an empty 96-well microtiter plate. PRMT5/MEP50 protein complex was combined with H4(1-21) peptide ([…]) in PRMT5 assay buffer (50 mM Tris pH 8.5, 50 mM NaCl, 5 mM MgCl2, 1 mM EDTA, 1 mM TCEP) and 44 ul was added to the microtiter plate containing compound. S-Adenosyl-L-methionine (SAM) was prepared by combining ^3H labelled SAM with unlabelled SAM in PRMT5 assay buffer such that the final SAM concentration was 10 uM and the specific activity was 0.2 uCi/ul. The reaction was initiated by adding 5 ul of SAM stock to the microtiter plate. The final reaction conditions were 10 nM PRMT5/MEP50 complex, 200 nM peptide and 1 uM SAM. Following a 25 minute incubation at room temperature, the reaction was stopped with the addition of 100 uL of 20% TCA. The 3H-peptide product was captured using a 96-well filter plate (MSIPN4B, Millipore) and washed 5 times with PBS buffer. Scintillation fluid (100 ul) was added to the dried filter plate and counted in a liquid scintillation counter. IC50 values were determined by fitting the data to the standard 4-parameter dose response equation using Pfizer proprietary software.
In the final construct PRMT5 ORF was under control of polyhedrin promoter (polH) while MEP50 ORF was under control of p10 promoter.
Viruses were generated using standard Bac-to-Bac viral generation protocols (Life Technologies) and amplified to high-titer passage two (P2) stocks. Protein over expression was conducted in exponentially growing Sf21 cells infected at 2×106 with P2 viral stock at MOI=1 of PRMT5-Mep50 dual construct virus and Mep50 construct virus at 1:1 ratio. The co-expression protocol was used to supplement additional Mep50 for FlagPRMT5-Mep50 heterodimer formation. Cells were harvested at 72 h post infection by centrifugation and frozen pellet was stored at −80° C.
FlagPRMT5-Mep50 complex was purified from cell lysate using Flag affinity chromatography. Cell were lyzed in 50 mM Tris 7.5, 200 mM NaCl, 10% glycerol, 0.25 mM TCEP supplemented with EDTA-free protease inhibitor cocktail (Roche). 1.5 ml of lysis buffer was added per 1 g of frozen pellet. The clarified lysate was obtained by centrifugation of cell lysate at 10,000 g for 1 h at 4 C. 5 ml of Anti-FLAG M2 Agarose (Sigma) […] was added to the clarified lysate to isolate FlagPRMT5-Mep50. Following batch binding for 3 h at 4 C, Flag resin bound to FlagPRMT5-Mep50 washed with 20 column volumes (CV) of 50 mM Tris 7.5, 200 mM NaCl, 10% glycerol, 0.25 mM TCEP followed by elution of FlagPRMT5-Mep50 complex using 3 CV of 50 mM Tris 7.5, 200 mM NaCl, 10% glycerol, 0.25 mM TCEP supplemented with 200 ug/ml of FLAG Peptide ([…]). […] Peak fractions containing FlagPRMT5-Mep50 complex were concentrated to 1.6 mg/ml, flash frozen in small aliquots using liquid nitrogen and stored at −80° C.

Chain of PRMT5/MEP50 protein complex (O14744 other isoform, or with tags, fused parts or gaps): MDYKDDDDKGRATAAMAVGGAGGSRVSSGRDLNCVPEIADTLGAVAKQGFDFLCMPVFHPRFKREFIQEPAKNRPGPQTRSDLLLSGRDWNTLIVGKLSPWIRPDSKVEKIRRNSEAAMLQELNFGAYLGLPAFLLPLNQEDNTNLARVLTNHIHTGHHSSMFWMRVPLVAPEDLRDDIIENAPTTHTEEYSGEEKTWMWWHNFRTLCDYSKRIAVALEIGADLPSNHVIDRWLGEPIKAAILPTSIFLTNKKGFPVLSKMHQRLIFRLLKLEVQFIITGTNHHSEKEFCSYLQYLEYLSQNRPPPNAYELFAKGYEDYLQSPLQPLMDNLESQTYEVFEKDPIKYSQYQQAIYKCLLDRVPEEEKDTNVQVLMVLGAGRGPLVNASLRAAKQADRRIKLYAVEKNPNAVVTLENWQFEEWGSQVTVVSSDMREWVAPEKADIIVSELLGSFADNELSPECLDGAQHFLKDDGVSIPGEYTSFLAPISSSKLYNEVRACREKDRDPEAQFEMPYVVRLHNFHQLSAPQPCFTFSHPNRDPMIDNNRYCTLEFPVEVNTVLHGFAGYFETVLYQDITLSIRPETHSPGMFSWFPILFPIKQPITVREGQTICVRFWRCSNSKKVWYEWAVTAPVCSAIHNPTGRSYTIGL
Chain of PRMT5/MEP50 protein complex (Q9BQA1 whole entry partner): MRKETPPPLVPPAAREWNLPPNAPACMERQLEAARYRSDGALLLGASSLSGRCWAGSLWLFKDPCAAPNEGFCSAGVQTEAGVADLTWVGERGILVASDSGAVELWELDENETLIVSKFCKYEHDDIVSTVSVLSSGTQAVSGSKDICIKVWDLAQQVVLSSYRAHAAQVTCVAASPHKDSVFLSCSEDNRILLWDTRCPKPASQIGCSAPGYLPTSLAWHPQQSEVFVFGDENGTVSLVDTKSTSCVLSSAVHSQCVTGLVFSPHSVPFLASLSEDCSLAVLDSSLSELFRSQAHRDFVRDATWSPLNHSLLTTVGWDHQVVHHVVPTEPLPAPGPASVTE

Structure (SMILES): CC[C@H](O)[C@H]1O[C@@H](n2ccc3c(C)ncnc32)[C@H](O)[C@@H]1O [Example 41, (2R,3S,4R,5R)-2-((S)-1-hydroxypropyl)-5-(4-methyl-7H-pyrrolo[2,3-d]pyrimidin-7-yl)tetrahydrofuran-3,4-diol]
- IC50: 3.85 µM

Structure (SMILES): Cc1ncnc2c1ccn2[C@@H]1O[C@H]([C@H](O)C2CCCC2)[C@@H](O)[C@H]1O [Example 42, (2R,3S,4R,5R)-2-((R)-cyclopentyl(hydroxy)methyl)-5-(4-methyl-7H-pyrrolo[2,3-d]pyrimidin-7-yl)tetrahydrofuran-3,4-diol]
- IC50: 0.663 µM

Structure (SMILES): Cc1ncnc2c1ccn2[C@@H]1O[C@H]([C@@H](O)C2CCCC2)[C@@H](O)[C@H]1O [Example 43, (2R,3S,4R,5R)-2-((S)-cyclopentyl(hydroxy)methyl)-5-(4-methyl-7H-pyrrolo[2,3-d]pyrimidin-7-yl)tetrahydrofuran-3,4-diol]
- IC50: 74 µM

Structure (SMILES): Cc1ncnc2c1ccn2[C@@H]1O[C@H]([C@H](C)O)[C@@H](O)[C@H]1O [Example 45, (2R,3S,4R,5R)-2-((S)-1-hydroxyethyl)-5-(4-methyl-7H-pyrrolo[2,3-d]pyrimidin-7-yl)tetrahydrofuran-3,4-diol]
- IC50: 1.74 µM

Structure (SMILES): Cc1ncnc2c1ccn2[C@@H]1O[C@H]([C@H](O)C2CC2)[C@@H](O)[C@H]1O [Example 46, (2R,3S,4R,5R)-2-((R)-cyclopropyl(hydroxy)methyl)-5-(4-methyl-7H-pyrrolo[2,3-d]pyrimidin-7-yl)tetrahydrofuran-3,4-diol]
- IC50: 0.367 µM

Structure (SMILES): Cc1ncnc2c1ccn2[C@@H]1O[C@H]([C@@H](O)C2CC2)[C@@H](O)[C@H]1O [Example 47, (2R,3S,4R,5R)-2-((S)-cyclopropyl(hydroxy)methyl)-5-(4-methyl-7H-pyrrolo[2,3-d]pyrimidin-7-yl)tetrahydrofuran-3,4-diol]
- IC50: 15.4 µM

Structure (SMILES): Cc1ncnc2c1ccn2[C@@H]1O[C@H]([C@H](O)C(C)C)[C@@H](O)[C@H]1O [Example 48, (2R,3S,4R,5R)-2-((R)-1-hydroxy-2-methylpropyl)-5-(4-methyl-7H-pyrrolo[2,3-d]pyrimidin-7-yl)tetrahydrofuran-3,4-diol]
- IC50: 0.517 µM

Structure (SMILES): Cc1ncnc2c1ccn2[C@@H]1O[C@H]([C@@H](O)C(C)C)[C@@H](O)[C@H]1O [Example 49, (2R,3S,4R,5R)-2-((S)-1-hydroxy-2-methylpropyl)-5-(4-methyl-7H-pyrrolo[2,3-d]pyrimidin-7-yl)tetrahydrofuran-3,4-diol]
- IC50: 37.5 µM

Structure (SMILES): Cc1ncnc2c1ccn2[C@@H]1O[C@H]([C@H](O)C2CCC2)[C@@H](O)[C@H]1O [Example 52, (2R,3S,4R,5R)-2-((R)-cyclobutyl(hydroxy)methyl)-5-(4-methyl-7H-pyrrolo[2,3-d]pyrimidin-7-yl)tetrahydrofuran-3,4-diol]
- IC50: 1.26 µM

Structure (SMILES): Cc1ncnc2c1ccn2[C@@H]1O[C@H]([C@@H](O)C2CCC2)[C@@H](O)[C@H]1O [Example 53, (2R,3S,4R,5R)-2-((S)-cyclobutyl(hydroxy)methyl)-5-(4-methyl-7H-pyrrolo[2,3-d]pyrimidin-7-yl)tetrahydrofuran-3,4-diol]
- IC50: 9.23 µM

Structure (SMILES): Cc1ncnc2c1ccn2[C@@H]1O[C@H]([C@H](O)c2ccco2)[C@@H](O)[C@H]1O [Example 54, (2S,3S,4R,5R)-2-((S)-furan-2-yl(hydroxy)methyl)-5-(4-methyl-7H-pyrrolo[2,3-d]pyrimidin-7-yl)tetrahydrofuran-3,4-diol]
- IC50: 0.024 µM

Structure (SMILES): Cc1ncnc2c1ccn2[C@@H]1O[C@H]([C@@H](O)c2ccco2)[C@@H](O)[C@H]1O [Example 55, (2S,3S,4R,5R)-2-((R)-furan-2-yl(hydroxy)methyl)-5-(4-methyl-7H-pyrrolo[2,3-d]pyrimidin-7-yl)tetrahydrofuran-3,4-diol]
- IC50: 4.76 µM

Structure (SMILES): Cc1ncnc2c1ccn2[C@@H]1O[C@H]([C@H](O)C(F)(F)F)[C@@H](O)[C@H]1O [Example 56, (2R,3R,4S,5S)-2-(4-methyl-7H-pyrrolo[2,3-d]pyrimidin-7-yl)-5-((S)-2,2,2-trifluoro-1-hydroxyethyl)tetrahydrofuran-3,4-diol]
- IC50: 0.011 µM

Structure (SMILES): Cc1ncnc2c1ccn2[C@@H]1O[C@H]([C@@H](O)C(F)(F)F)[C@@H](O)[C@H]1O [Example 57, (2R,3R,4S,5S)-2-(4-methyl-7H-pyrrolo[2,3-d]pyrimidin-7-yl)-5-((R)-2,2,2-trifluoro-1-hydroxyethyl)tetrahydrofuran-3,4-diol]
- IC50: 6.31 µM

Structure (SMILES): Cc1ncnc2c1ccn2[C@@H]1O[C@H](Cn2cccn2)[C@@H](O)[C@H]1O [Example 58, (2R,3S,4R,5R)-2-((1H-pyrazol-1-yl)methyl)-5-(4-methyl-7H-pyrrolo[2,3-d]pyrimidin-7-yl)tetrahydrofuran-3,4-diol]
- IC50: 1.98 µM

Structure (SMILES): Cc1ncnc2c1ccn2[C@@H]1OC(C(F)(F)c2ccc(F)cc2)[C@@H](O)[C@H]1O (stereo partly drawn) [Example 59, (3S,4R,5R)-2-(difluoro(4-fluorophenyl)methyl)-5-(4-methyl-7H-pyrrolo[2,3-d]pyrimidin-7-yl)tetrahydrofuran-3,4-diol]
- IC50: 0.491 µM

Structure (SMILES): Cc1nc(N)nc2c1ccn2[C@@H]1O[C@H]([C@@H](O)c2ccc(F)cc2)[C@@H](O)[C@H]1O [Example 65, (2R,3R,4S,5R)-2-(2-amino-4-methyl-7H-pyrrolo[2,3-d]pyrimidin-7-yl)-5-((S)-(4-fluorophenyl)(hydroxy)methyl)tetrahydrofuran-3,4-diol]
- IC50: 0.488 µM

Structure (SMILES): Cc1ncnc2c1ccn2[C@@H]1O[C@@H](c2ccccc2)[C@@H](O)[C@H]1O [Example 66, (2R,3R,4S,5S)-2-(4-methyl-7H-pyrrolo[2,3-d]pyrimidin-7-yl)-5-phenyltetrahydrofuran-3,4-diol]
- IC50: 1.99 µM

Structure (SMILES): Nc1ncnc2c1c(F)cn2[C@@H]1O[C@@H](c2ccccc2)[C@@H](O)[C@H]1O [Example 67, (2R,3R,4S,5S)-2-(4-amino-5-fluoro-7H-pyrrolo[2,3-d]pyrimidin-7-yl)-5-phenyltetrahydrofuran-3,4-diol]
- IC50: 1.56 µM

Structure (SMILES): Cc1nc(N)nc2c1ccn2[C@@H]1O[C@@H](c2ccccc2)[C@@H](O)[C@H]1O [Example 68, (2R,3R,4S,5S)-2-(2-amino-4-methyl-7H-pyrrolo[2,3-d]pyrimidin-7-yl)-5-phenyltetrahydrofuran-3,4-diol]
- IC50: 5.5 µM

Structure (SMILES): Cc1ncnc2c1ccn2[C@@H]1O[C@@H](c2cnco2)[C@@H](O)[C@H]1O [Example 69, (2R,3R,4S,5R)-2-(4-methyl-7H-pyrrolo[2,3-d]pyrimidin-7-yl)-5-(oxazol-5-yl)tetrahydrofuran-3,4-diol]
- IC50: 1.05 µM

Structure (SMILES): Cc1ncnc2c1ccn2[C@@H]1O[C@@H]([C@@H](C)O)[C@@H](O)[C@H]1O [Example 70, (2S,3S,4R,5R)-2-((R)-1-hydroxyethyl)-5-(4-methyl-7H-pyrrolo[2,3-d]pyrimidin-7-yl)tetrahydrofuran-3,4-diol]
- IC50: 0.05 µM

Structure (SMILES): Cc1ncnc2c1ccn2[C@@H]1O[C@@H](CO)[C@@H](O)[C@H]1O [Example 71, (2S,3S,4R,5R)-2-(hydroxymethyl)-5-(4-methyl-7H-pyrrolo[2,3-d]pyrimidin-7-yl)tetrahydrofuran-3,4-diol]
- IC50: 0.052 µM

Structure (SMILES): Cc1ncnc2c1ccn2[C@@H]1O[C@@H](c2ccn[nH]2)[C@@H](O)[C@H]1O [Example 72, (2R,3R,4S,5S)-2-(4-methyl-7H-pyrrolo[2,3-d]pyrimidin-7-yl)-5-(1H-pyrazol-5-yl)tetrahydrofuran-3,4-diol]
- IC50: 2.03 µM

Structure (SMILES): Cc1ncnc2c1ccn2[C@@H]1O[C@@H]([C@@H](O)c2ccccc2)[C@@H](O)[C@H]1O [Example 73, (2S,3S,4R,5R)-2-((S)-hydroxy(phenyl)methyl)-5-(4-methyl-7H-pyrrolo[2,3-d]pyrimidin-7-yl)tetrahydrofuran-3,4-diol]
- IC50: 23.3 µM

Structure (SMILES): Cc1ncnc2c1ccn2[C@@H]1O[C@@H]([C@H](O)c2ccccc2)[C@@H](O)[C@H]1O [Example 74, (2S,3S,4R,5R)-2-((R)-hydroxy(phenyl)methyl)-5-(4-methyl-7H-pyrrolo[2,3-d]pyrimidin-7-yl)tetrahydrofuran-3,4-diol]
- IC50: 3.14 µM
